Patent US20110269811A1, “INHIBITORS OF SEMICARBAZIDE-SENSITIVE AMINE OXIDASE (SSAO) AND VAP-1 MEDIATED ADHESION USEFUL FOR TREATMENT AND PREVENTION OF DISEASES” (priority 2006, published 2011)

How the values were obtained:
Recombinant human MAO-A = molecular target: T1, Recombinant human MAO-A (Homo sapiens, UniProt P21397); test: MAO-A activity, colorimetric method, tyramine substrate; format: biochemical; details: for Specificity of SSAO on MAO-A: ratio of IC50 for MAO-A to IC50 for SSAO; for IC50: recombinant human MAO-A
T1 construct: purchased BD Biosciences (MA, USA)
T1 sequence (P21397 1-527): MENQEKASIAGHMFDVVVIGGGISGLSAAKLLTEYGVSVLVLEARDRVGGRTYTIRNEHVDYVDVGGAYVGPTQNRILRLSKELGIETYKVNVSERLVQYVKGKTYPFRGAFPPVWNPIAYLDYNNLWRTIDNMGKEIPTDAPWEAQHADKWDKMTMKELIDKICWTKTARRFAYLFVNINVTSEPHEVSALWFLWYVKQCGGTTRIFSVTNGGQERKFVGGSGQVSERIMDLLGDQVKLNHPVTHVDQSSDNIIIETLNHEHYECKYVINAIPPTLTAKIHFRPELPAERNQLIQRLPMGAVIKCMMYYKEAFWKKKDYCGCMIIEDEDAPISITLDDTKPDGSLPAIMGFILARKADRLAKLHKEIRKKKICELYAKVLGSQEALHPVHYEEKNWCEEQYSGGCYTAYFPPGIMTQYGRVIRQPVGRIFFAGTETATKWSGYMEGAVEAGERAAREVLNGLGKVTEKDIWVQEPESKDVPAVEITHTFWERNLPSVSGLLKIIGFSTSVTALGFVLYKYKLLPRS
Procedure: The specificities of the different SSAO inhibitors was tested by determining their abilities to inhibit MAO-A and MAO-B activities in vitro. Recombinant human MAO-A and human MAO-B enzymes were obtained from BD Biosciences (MA, USA). MAO activity was measured using the colorimetric method essentially as described (Holt, A. et al. (1997) Anal. Biochem. 244: 384). A pre-determined amount of inhibitor diluted in 0.2M potassium phosphate buffer, pH 7.6, was added to each well, if required. The amount of inhibitor varied in each assay but was generally at a final concentration of between 1 nM and 1 mM. Controls lacked inhibitor. The following agents were then added to a final reaction volume of 200 μL in 0.2M potassium phosphate buffer, pH 7.6: 0.04 mg/ml of MAO-A or 0.07 mg/ml MAO-B enzyme, 15 μL of 10 mM tyramine substrate (for MAO-A), or 15 μL 100 mM benzylamine substrate (for MAO-B), and 50 μL of freshly made chromogenic solution. The chromogenic solution contained 750 μM vanillic acid (Sigma#V-2250), 400 μM 4-aminoantipyrine (Sigma #A-4328) and 12 U/mL horseradish peroxidase (Sigma #P-8250) in order to cause a change of 0.5 OD A490 nm/h. This was within the linear response range for the assay. The plates were incubated for 60 min at 37° C. The increase in absorbance, reflecting MAO activity, was measured at 490 nm using microplate spectrophotometer (Power Wave 40, Bio-Tek Inst.). Inhibition was presented as percent inhibition compared to control after correcting for background absorbance and IC50 values calculated using GraphPad Prism software. Clorgyline and pargyline (inhibitors of MAO-A and -B, respectively) at 1 μM, were added to some wells as positive controls for MAO inhibition. […] The compounds described in the present invention are therefore expected to have therapeutic utility in the treatment of diseases and conditions in which the activity of SSAO/VAP-1 plays a role, that is, in SSAO/VAP-1 mediated diseases and conditions.

human MAO-B = molecular target: T2, human MAO-B (Homo sapiens, UniProt P27338); test: MAO-B activity, colorimetric method, benzylamine substrate; format: biochemical; details: for Specificity of SSAO on MAO-B: ratio of IC50 for MAO-B to IC50 for SSAO; for IC50: recombinant human MAO-B
T2 construct: purchased BD Biosciences (MA, USA)
T2 sequence (P27338 1-520): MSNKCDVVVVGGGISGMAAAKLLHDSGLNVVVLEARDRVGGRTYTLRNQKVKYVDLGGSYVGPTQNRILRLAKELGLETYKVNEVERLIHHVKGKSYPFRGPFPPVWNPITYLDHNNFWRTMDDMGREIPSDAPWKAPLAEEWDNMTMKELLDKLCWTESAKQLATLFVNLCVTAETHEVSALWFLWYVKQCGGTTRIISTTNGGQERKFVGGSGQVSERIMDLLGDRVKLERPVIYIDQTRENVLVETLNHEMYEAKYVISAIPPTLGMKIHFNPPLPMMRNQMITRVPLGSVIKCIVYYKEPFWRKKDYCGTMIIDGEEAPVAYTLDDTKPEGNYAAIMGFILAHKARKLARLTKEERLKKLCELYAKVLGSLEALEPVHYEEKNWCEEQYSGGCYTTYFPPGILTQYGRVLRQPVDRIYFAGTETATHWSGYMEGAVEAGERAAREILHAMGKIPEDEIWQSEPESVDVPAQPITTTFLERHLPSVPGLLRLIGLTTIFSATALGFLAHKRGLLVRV
Procedure: The specificities of the different SSAO inhibitors was tested by determining their abilities to inhibit MAO-A and MAO-B activities in vitro. Recombinant human MAO-A and human MAO-B enzymes were obtained from BD Biosciences (MA, USA). MAO activity was measured using the colorimetric method essentially as described (Holt, A. et al. (1997) Anal. Biochem. 244: 384). A pre-determined amount of inhibitor diluted in 0.2M potassium phosphate buffer, pH 7.6, was added to each well, if required. […] Controls lacked inhibitor. The following agents were then added to a final reaction volume of 200 μL in 0.2M potassium phosphate buffer, pH 7.6: 0.04 mg/ml of MAO-A or 0.07 mg/ml MAO-B enzyme, 15 μL of 10 mM tyramine substrate (for MAO-A), or 15 μL 100 mM benzylamine substrate (for MAO-B), and 50 μL of freshly made chromogenic solution. The chromogenic solution contained 750 μM vanillic acid (Sigma#V-2250), 400 μM 4-aminoantipyrine (Sigma #A-4328) and 12 U/mL horseradish peroxidase (Sigma #P-8250) in order to cause a change of 0.5 OD A490 nm/h. […] The plates were incubated for 60 min at 37° C. The increase in absorbance, reflecting MAO activity, was measured at 490 nm using microplate spectrophotometer (Power Wave 40, Bio-Tek Inst.). Inhibition was presented as percent inhibition compared to control after correcting for background absorbance and IC50 values calculated using GraphPad Prism software. Clorgyline and pargyline (inhibitors of MAO-A and -B, respectively) at 1 μM, were added to some wells as positive controls for MAO inhibition.

Specificity of SSAO on MAO-A (Recombinant human MAO-A)	IC50 (Recombinant human MAO-A)	Specificity of SSAO on MAO-B (human MAO-B)	IC50 (human MAO-B)	melting point	SMILES
8385	109 µM	200	2.4 µM	144 to 146 °C	CSc1ccc(C/C(=C/F)CN)cc1.Cl [Compound I-9-Z, (Z)-3-Fluoro-2-(4-methylthiobenzyl)allylamine hydrochloride]
9400	85 µM	189	1.7 µM	167 to 168 °C	CCOc1ccc(C/C(=C\F)CN)cc1.Cl [Compound I-2-E, (E)-3-Fluoro-2-(4-ethoxybenzyl)-allylamine hydrochloride]
100000	–	100000	–	192 to 193 °C	CSc1cccc(C/C=C(/F)CN)c1.Cl [II-13-E, (E)-2-Fluoro-4-(3-methylthiophenyl)-2-butenylamine hydrochloride]
143	20 µM	8.6	1.2 µM	104 to 106 °C	CCOc1ccc(CC/C(=C\Cl)CN)cc1.Cl [Compound I-45-Z, (E)-3-Chloro-2-(4-ethoxyphenylethyl)allylamine hydrochloride]
146	105 µM	22	16 µM	138 °C (dec.)	COc1ccc(CC/C(=C\Cl)CN)cc1.Cl [Compound I-44-Z, (E)-3-Chloro-2-(4-methoxyphenylethyl)allylamine hydrochloride]
5923	77 µM	2.54	0.033 µM	175 to 176 °C	CC(C)c1ccc(C/C(=C\F)CN)cc1.Cl [Compound I-14-E, (E)-3-Fluoro-2-(4-isopropylbenzyl)allylamine hydrochloride]
50000	1100 µM	50000	1100 µM	175 to 176 °C	COc1cccc(C/C=C(/F)CN)c1.Cl [II-8-E, (E)-2-Fluoro-4-(3-methoxyphenyl)-2-butenylamine hydrochloride]
7692	–	7692	–	195 to 196 °C	Cc1cccc(C/C=C(/F)CN)c1.Cl [II-6-E, (E)-2-Fluoro-4-(3-methylphenyl)-2-butenylamine hydrochloride]
17000	119 µM	5429	38 µM	155 to 156 °C	CC(C)(C)c1ccc(C/C(=C/F)CN)cc1.Cl [Compound I-15-Z, (Z)-3-Fluoro-2-(4-tert-butylbenzyl)allylamine hydrochloride]
14290	–	14286	–	196 to 197 °C	CS(=O)(=O)c1cccc(C/C=C(/F)CN)c1.Cl [II-14-E, (E)-2-Fluoro-4-(3-methanesulfonylphenyl)-2-butenylamine hydrochloride]

SMILES	Specificity of SSAO on MAO-A (Recombinant human MAO-A)	IC50 (Recombinant human MAO-A)	Specificity of SSAO on MAO-B (human MAO-B)	IC50 (human MAO-B)	melting point
NC/C(=C\F)CCc1cc(F)cc(C(F)(F)F)c1.O=C(O)C(F)(F)F [Compound I-109-Z, (Z)-3-Fluoro-2-(3-fluoro-5-trifluoromethylphenylethyl)allylamine trifluoroacetate]	78	21 µM	5.9	1.6 µM	56 to 57 °C
CCCCOc1ccc(CC/C(=C\Cl)CN)cc1.Cl [Compound I-47-E, (E)-3-Chloro-2-(4-n-butoxyphenylethyl)allylamine hydrochloride]	794	135 µM	2.5	0.42 µM	132 to 133 °C
NC/C(=C\Cl)CCc1cc(F)cc(C(F)(F)F)c1.O=C(O)C(F)(F)F [Compound I-40-Z, (Z)-3-Chloro-2-(3-fluoro-5-trifluoromethylphenylethyl)allylamine trifluoroacetate]	687	632 µM	185	170 µM	51 to 52 °C
